Reference: patent US20030008845A1, “Conjugated nonadecadienoic acid compositions” (priority 2001, published 2003)

Assays:
[1] = Effects of CNA and CLA on body composition (diet feeding); type: in vivo, mice; conditions: 0.3% in diet, 2 weeks; for Body weight gain per animal: female ICR mice
Text: Female ICR mice (4-week-old) and semi-purified diets (TD94060, 99% basal mix) were purchased from Harlan Sprague Dawley (Madison, Wis.) and Harlan Teklad (Madison, Wis.), respectively. CLA was obtained from Natural Lipids Ltd AS, Hovdebygda, Norway; its composition was 88.7% CLA (c9, t11/t9, c11, 41.9%; t10, c12, 43.5%; t9, t11/10, t12, 1.5%; others, 1.8%) with the remainder as oleic acid, 5.6%; palmitic acid, 1.4%; and linoleic acid, 0.5%. CNA was kindly provided by the US Food and Drug Administration; it was 98.6% CNA (c10, t12, 42.3%; t11, c13, 48.0%; t10, t12/t11, t13, 5.1%; others, 3.2%) with the remainder as unreacted NA. CLA or CNA was added to diets at the expense of corn oil to maintain 5.5% fat. Diet was stored at −20° C. until use. Mice were housed individually in a windowless room with a 12-h light-dark cycle in strict accordance to guidelines established by the Research Animal Resources Center of University of Wisconsin-Madison. Diet and water, available ad libitum, were freshly provided three times per week.
After a 5 day adaptation period, mice were randomly separated into 3 groups and fed control diet, diet supplemented with 0.3% CLA, or diet supplemented with 0.3% CNA for 2 weeks. 0.3% of diet CLA is a sub-optimal dose for CLA's effects on body composition.
Results are mean±S.E. (n=6).

[2] = test system: 3T3-L1 adipocytes; experiment: cellular triacylglycerol in 3T3-L1 adipocytes; type: cell-based
Text: (§1) CNA was synthesized from NA (purchased from Nu-Chek Corp., Elysian, Minn.), using the method described in Park, Y. et al., Lipids 34 (1999) 235-241 for producing CLA from linoleic acid; the CNA product synthesized contained 97.3% CNA (c10, t12, 33.4%; t11, c13, 32.9%; t10, t12/t11, t13, 23.4%; other isomers, 7.6%) with the remainder as unreacted NA. CLA was synthesized as described by Park, et al., supra; the CLA product synthesized contained 97.8% CLA (c9, t11/t9, c11, 45.7%; t10, c12, 47.6%; t9, t11/t10, t12, 1.7%; others, 2.8%) with the remainder as unreacted linoleic acid.
(§2) Cultured cells were treated with fatty acid-albumin complexes for 2 days, beginning at day 6 post-differentiation. Data were analyzed as log value with a two-way ANOVA using fatty acid (as treatments) and experiment. If the interaction between treatment and experiment was significant, this interaction was used as the error term. Additional experimental details were as described in Park, et al., supra.
(§3) Treatment values indicate the concentration of test materials (μM); all treatment groups included albumin at 100 μM. Reported values are mean±S.E. (n=8, collected from two independent experiments). […] CNA inhibited LPL activity in cultured 3T3-L1 adipocytes (FIG. 1A). In addition, CNA enhanced glycerol release (FIG. 1B) and reduced intracellular triacylglycerol (FIG. 1C) and glycerol (FIG. 1D) in the same cells. […]

[3] = target: T1, lipoprotein lipase (LPL) (Mus musculus, UniProt P11152); experiment: heparin-releasable LPL activity in 3T3-L1 adipocytes; type: cell-based
T1 construct: endogenous in cells; host or cells: 3T3-L1 adipocytes
T1 sequence (P11152 28-474): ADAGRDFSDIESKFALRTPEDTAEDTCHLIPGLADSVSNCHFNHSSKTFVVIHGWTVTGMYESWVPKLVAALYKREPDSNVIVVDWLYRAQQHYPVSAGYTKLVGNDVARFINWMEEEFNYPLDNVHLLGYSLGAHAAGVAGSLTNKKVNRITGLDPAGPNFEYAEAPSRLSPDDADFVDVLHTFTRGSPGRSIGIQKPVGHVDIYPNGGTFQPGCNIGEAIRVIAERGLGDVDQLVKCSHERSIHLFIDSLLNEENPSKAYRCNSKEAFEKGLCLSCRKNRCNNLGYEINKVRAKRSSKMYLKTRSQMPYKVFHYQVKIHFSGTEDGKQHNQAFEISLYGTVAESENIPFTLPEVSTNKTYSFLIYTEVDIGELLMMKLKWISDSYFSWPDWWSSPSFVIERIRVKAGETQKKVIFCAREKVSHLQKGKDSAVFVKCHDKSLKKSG
Text: as §1, §2, §3

[4] = test system: 3T3-L1 adipocytes; experiment: cellular glycerol in 3T3-L1 adipocytes; type: cell-based
Text: as §1, §2, §3

[5] = test system: 3T3-L1 adipocytes; experiment: glycerol release in 3T3-L1 adipocytes; type: cell-based
Text: as §1, §2, §3

[6] = test system: ADP-induced whole blood platelet aggregation; experiment: ADP-induced whole blood platelet aggregation; type: cell-based, guinea pigs; conditions: guinea pig heparinized whole blood, ADP 10 μM, 2 min preincubation (FIG. 3)
Method: (§4) Female guinea pigs and diets were purchased from Harlan Teklad (Madison, Wis). Whole Blood Aggregometer, collagen and ADP were purchased from Chrono-log Corp. (Havertown, Pa.). All ELISA kits were purchased from Cayman Chemical (Ann Arbor, Mich.).
(§5) Whole blood platelet aggregation: Guinea Pigs were anesthetized with a combination of ketamine (35 mg/kg) and xylazine (10 mg/kg) by subcutaneous administration. Heparinized blood (20 unit/ml) was obtained by cardiac puncture. Within 5-10 minutes, the blood (1.0 ml) was preheated at 37° C. and then incubated with free fatty acid or DMSO (control) for 2 minutes. Collagen (4 μg/ml) or ADP (10 μM) was next added to the blood to start the platelet aggregation process. Platelet aggregation was measured using an Aggregometer.

[7] = test system: thromboxane B2; experiment: thromboxane B2 level in collagen-stimulated blood by ELISA; type: cell-based, guinea pigs; conditions: collagen-stimulated guinea pig blood, plasma ELISA (FIG. 4)
Method: as §4
(§6) Determination of thromboxane B2 level by ELISA: After the whole blood platelet aggregation, the collagen-stimulated blood was centrifuged for plasma and stored at −80° C. The plasma thromboxane level was determined by ELISA according to the manufacturer's instructions. Inhibitory effects on ovine COX-1 and COX-2: COX-1 or COX-2, heme and reaction buffer were pre-incubated under 37° C. CNA or DMSO (control) was added to the system and co-incubated for 5 minutes. Arachidonic acid was added and the reaction was maintained at 37° C. for 2 minutes. The catalysis reaction was terminated by adding HCL. Total prostanoids were measured by ELISA according to manufacturer's instructions.

[8] = test system: lipopolysaccharide-stimulated macrophages; experiment: PGE2 released from LPS-stimulated macrophages; type: cell-based; conditions: macrophages incubated 24 hours, then 100 ng/ml LPS 8 hours; about 3000 pg/ml without CNA (FIG. 7)
Method: As a further indication of the ability of CNA to inhibit COX enzymes, FIG. 7 depicts the inhibition of PGE2 released from stimulated macrophages in the presence of varying amounts of CNA. Confluent macrophages were incubated with CNA or linoleic acid (LA; control) at the concentrations shown for 24 hours in 0.5% fetal bovine serum then were stimulated with 100 ng/ml lipopolysaccharide (LPS) for 8 hours. The level of PGE2 in the medium was determined by ELISA assay.

[9] = target: T2, ovine cyclooxygenase-2 (Ovis aries, UniProt P79208); experiment: ovine COX-2 inhibition (total prostanoids by ELISA); type: biochemical; conditions: pure ovine COX-2, 5 min co-incubation, 37° C. (FIG. 6)
T2 sequence (P79208 17-603): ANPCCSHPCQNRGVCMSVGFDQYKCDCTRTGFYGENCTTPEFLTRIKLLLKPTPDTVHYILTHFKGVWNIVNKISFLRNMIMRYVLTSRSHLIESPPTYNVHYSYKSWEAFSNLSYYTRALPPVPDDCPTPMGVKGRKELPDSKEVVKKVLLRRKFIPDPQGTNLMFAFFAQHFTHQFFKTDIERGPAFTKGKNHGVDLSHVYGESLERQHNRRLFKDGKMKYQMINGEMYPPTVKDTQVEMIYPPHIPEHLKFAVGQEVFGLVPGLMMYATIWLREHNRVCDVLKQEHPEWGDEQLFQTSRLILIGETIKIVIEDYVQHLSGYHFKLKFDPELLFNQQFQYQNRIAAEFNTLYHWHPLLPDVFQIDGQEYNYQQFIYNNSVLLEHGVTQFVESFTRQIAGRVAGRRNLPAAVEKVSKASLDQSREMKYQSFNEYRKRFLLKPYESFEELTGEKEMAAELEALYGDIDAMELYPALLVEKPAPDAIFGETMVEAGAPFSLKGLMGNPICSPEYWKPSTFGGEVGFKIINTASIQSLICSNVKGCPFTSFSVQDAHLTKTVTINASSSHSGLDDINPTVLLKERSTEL
Method: as §6

[10] = target: T3, ovine cyclooxygenase-1 (Ovis aries, UniProt P05979); experiment: ovine COX-1 inhibition (total prostanoids by ELISA); type: biochemical; conditions: pure ovine COX-1, 5 min co-incubation, 37° C. (FIG. 5)
T3 sequence (P05979 25-600): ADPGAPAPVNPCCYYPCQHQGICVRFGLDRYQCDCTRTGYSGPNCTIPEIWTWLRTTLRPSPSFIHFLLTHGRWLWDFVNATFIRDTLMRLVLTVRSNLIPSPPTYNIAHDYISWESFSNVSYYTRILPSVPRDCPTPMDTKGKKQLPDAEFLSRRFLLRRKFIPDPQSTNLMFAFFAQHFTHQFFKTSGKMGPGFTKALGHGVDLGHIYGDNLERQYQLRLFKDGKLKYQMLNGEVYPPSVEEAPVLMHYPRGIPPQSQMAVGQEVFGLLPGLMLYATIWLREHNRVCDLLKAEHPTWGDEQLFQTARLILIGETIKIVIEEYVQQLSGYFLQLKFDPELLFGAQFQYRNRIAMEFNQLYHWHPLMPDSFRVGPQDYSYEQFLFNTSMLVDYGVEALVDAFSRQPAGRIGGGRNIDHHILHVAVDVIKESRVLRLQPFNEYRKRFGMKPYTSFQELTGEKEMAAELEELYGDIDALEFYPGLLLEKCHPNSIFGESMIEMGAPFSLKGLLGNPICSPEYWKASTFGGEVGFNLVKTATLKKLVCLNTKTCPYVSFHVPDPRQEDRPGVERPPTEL
Method: as §6

[11] = test system: collagen-induced whole blood platelet aggregation; experiment: collagen-induced whole blood platelet aggregation; type: cell-based, guinea pigs; conditions: guinea pig heparinized whole blood, collagen 4 μg/ml, 2 min preincubation (FIG. 2)
Method: as §4, §5

Molecule | Body weight gain per animal [1] [g] | intracellular triacylglycerol ([2]; at 50 or 100 μM) | LPL activity ([3]; 3T3-L1 adipocytes, at 50 or 100 μM) | intracellular glycerol ([4]; at 50 or 100 μM) | glycerol release ([5]; at 50 or 100 μM) | intracellular triacylglycerol ([2]; 2 days, albumin 100 μM (FIG. 1C)) | amount of whole body water, protein and ash ([1]; mice, in words) | body fat mass gain ([1]; mice, in words) | ADP-stimulated platelet aggregation [6] | thromboxane B2 level [7] | level of PGE2 in the medium [8] | LPL activity ([3]; cultured 3T3-L1 adipocytes, fatty acid-albumin complexes 2 days, albumin 100 μM (FIG. 1A)) | COX-2 activity [9] | COX-1 activity [10] | collagen-stimulated platelet aggregation [11] | intracellular glycerol ([4]; 2 days, albumin 100 μM (FIG. 1D)) | glycerol release ([5]; 2 days, albumin 100 μM (FIG. 1B))
Conjugated linoleic acid [CLA, reference compound] | 1.3 | – | – | – | – | – | – | – | – | – | – | – | – | – | – | – | –
CCCCC/C=C\C/C=C\CCCCCCCCC(=O)O [NA, c10, c13 nonadecadienoic acid, reference compound] | – | ineffective | ineffective | ineffective | ineffective | – | – | – | – | – | – | – | – | – | – | – | –
conjugated nonadecadienoic acid [CNA] | 0.2 | – | – | – | – | reduced | enhanced | reduced | inhibited | reduced | less than 1000 pg/ml | inhibited | inhibited | inhibited | inhibited | reduced | enhanced
